Data published in patent US20030119846A1, “Compounds with 5-ht activity useful for controlling visual field loss” (priority 2000, published 2003).
Counter-ions that a name gives are not always drawn.

Legend:
[1] = system: retina (photo-oxidative injury); experiment: Neuroprotective effects in the acute blue-light damage model in the rat (ERG); format: in vivo, Sprague Dawley rats; details: for A-wave Amplitude Mean / B-wave Amplitude Mean: ERG after 5-day recovery
Description: Male Sprague Dawley rats were randomly assigned to vehicle treatment (N=15) or drug treatment (0.5 mg/kg [N=5] or 1 mg/kg [N=15]) experimental groups. Xaliproden hydrochloride or vehicle was administered by intraperitonal (IP) injection at 48, 24, and 0 hours prior to light exposure. Photo-oxidative injury to the retina was induced in dark-adapted rats (24 hours) by a 6-hour blue-light exposure (220 fc). Control rats (N=11) were housed in their home cage under normal cyclic light exposure. Rats were single housed in clear polycarbonate cages during this light exposure.
The electroretinogram (ERG) was recorded after a five day recovery period from dark-adapted anesthetized rats (Ketamine-HCl, 75 mg/Kg; Xylazine, 6 mg/Kg). The eye's electrical response to a flash of light was elicited by viewing a ganzfeld. ERGs to a series of light flashes increasing in intensity were digitized to analyze temporal characteristics of the waveform and determine the response voltage-log intensity (VlogI) relationship. Changes in the ERG a-wave are associated with photoreceptor and retinal pigment epithelium damage while damage to the inner retina is reflected in changes in the ERG b-wave.

[2] = target: T1, human cloned 5-HT1A receptors (Homo sapiens, UniProt P08908); experiment: 5-HT1A Receptor Binding Assay ([3H]8-OH-DPAT, CHO cell membranes); details: 0.25 nM [3H]8-OH-DPAT, 27° C., 1 h; read-out: Receptor Binding (IC50 nM, SEM)
T1 construct: purchased NEN (manufactured by Biosignal, Inc., Montreal, Canada); host or cells: CHO cells
T1 sequence (P08908 1-422): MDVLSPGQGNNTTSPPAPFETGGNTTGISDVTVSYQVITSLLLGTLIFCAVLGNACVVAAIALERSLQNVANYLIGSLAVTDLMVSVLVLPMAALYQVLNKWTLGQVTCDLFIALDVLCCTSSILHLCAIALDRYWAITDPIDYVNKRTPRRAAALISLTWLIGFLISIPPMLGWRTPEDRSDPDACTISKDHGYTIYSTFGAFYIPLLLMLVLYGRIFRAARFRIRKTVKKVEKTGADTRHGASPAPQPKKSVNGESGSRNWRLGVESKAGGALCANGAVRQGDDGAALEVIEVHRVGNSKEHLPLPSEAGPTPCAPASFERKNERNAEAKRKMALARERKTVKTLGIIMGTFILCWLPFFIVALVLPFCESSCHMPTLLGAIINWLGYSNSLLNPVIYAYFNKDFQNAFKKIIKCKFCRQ
Description: 5-HT1A binding studies were performed with human cloned receptors expressed in Chinese hamster ovary (CHO) cells using (^3H)8-OH DPAT as the ligand. Membranes from Chinese hamster ovary cells (CHO) expressing cloned 5-HT1A receptors (manufactured for NEN by Biosignal, Inc., Montreal, Canada) were homogenized in approximately 40 volumes of 50 mM Tris pH 7.4 for 5 sec. Drug dilutions were made using a Beckman Biomek 2000 robot (Beckman Instruments, Fullerton, Calif.). Incubations were conducted with membrane prep, test compounds, and 0.25 nM [^3H]8-OH-DPAT (NEN, Boston, Mass.) in the same buffer at 27° C. for 1 h. Assays were terminated by rapid vacuum filtration over Whatman GF/B glass fiber filters pre-soaked in 0.3% polyethyleneimine. Bound radioactivity was measured using liquid scintillation spectrometry. Data were analyzed using non-linear curve fitting programs (Sharif et al., J. Pharmac. Pharmacol. 51:685-694, 1999).
Ligand binding studies can also be run using membrane preparations from calf and rat brain (local source) and human cortex membranes. Specific brain regions were dissected out, homogenized in 10 volumes of 0.32 M sucrose and centrifuged for 10 min at 700×g. […] Ki values were calculated using the Cheng-Prusoff equation (De Vry et al., J. Pharm. Exper. Ther. 284:1082-1094, 1998.)

[3] = target: T2, 5-HT1A receptors (UniProt P08908); experiment: 5-HT1A Functional Assay (cAMP inhibition, forskolin-stimulated adenylate cyclase); details: read-out: cAMP Inhibition (EC50)
T2 sequence (P08908 1-422): T1 sequence (P08908 1-422)
Description: HeLa cells transfected with recombinant human 5-HT1A receptors were grown to confluence in 24-well plates. The cells were rinsed with 1 ml of Hepes-buffered saline (in MM) NaCl 130, KCl 5.4, CaCl2, 1.8, MgSO4 0.8, NaH2PO4 0.9, glucose 25, Hepes 20, pH 7.4, and phenol red 5 mg/l. The cells were labelled with 6 μCi/ml of [^2-3H]adenine (23 Ci/mmol, Amersham, Rahn AG, Zurich, Switzerland) in 0.5 ml of saline at 37 ° C. for 2 hr. The plates were subsequently rinsed twice with 1 ml of buffered saline containing 1 mM isobutylmethylxanthine. The cells were incubated for 15 min in 1 ml of this solution (37° C.) in the presence or absence of 10 μM forskolin and the test compound. The buffer was then removed and 1 ml of 5% trichloroacetic acid (TCA) containing 0.1 mM cAMP and 0.1 mM ATP was added to extract the samples. […] Cyclic AMP production was calculated as the ratio [^3H]cAMP/([^3H]cAMP+[^3H]ATP).

[4] = 0.5 mg/kg IP at 48, 24, 0 h before 6-hour blue-light exposure
[5] = 1.0 mg/kg IP at 48, 24, 0 h before 6-hour blue-light exposure

## FC(F)(F)c1cccc(C2=CCN(CCc3ccc4ccccc4c3)CC2)c1 [SR-57746A, xaliproden hydrochloride]
[1]; [4]
  A-wave Amplitude Mean: 550.5 μV
  B-wave Amplitude Mean: 1361.1 μV
[1]; 0.5 mg/kg, light-exposed rats
  Maximum a- and b-wave response amplitudes, % of controls: 82%
[1]; [5]
  A-wave Amplitude Mean: 460.8 μV
  B-wave Amplitude Mean: 1169.4 μV
[1]; 1 mg/kg, light-exposed rats
  Maximum a- and b-wave response amplitudes, % of normal: 70%
[1]; 0.5 and 1.0 mg/kg, light-exposed rats
  Protection of retinal function: Significant protection of retinal function
[2]
  IC50: 2.5 nM
[3]
  EC50: 3.7 nM
